Patent US20240366598A1, “GLUCOSE-DEPENDENT INSULINOTROPIC POLYPEPTIDE RECEPTOR ANTAGONISTS AND USES THEREOF” (Pfizer Inc., priority 2023, published 2024)

Molecular target: T1, human Glucose-dependent Insulinotropic Polypeptide Receptor (hGIPR) (Homo sapiens, UniProt P48546)
T1 sequence (P48546 22-466): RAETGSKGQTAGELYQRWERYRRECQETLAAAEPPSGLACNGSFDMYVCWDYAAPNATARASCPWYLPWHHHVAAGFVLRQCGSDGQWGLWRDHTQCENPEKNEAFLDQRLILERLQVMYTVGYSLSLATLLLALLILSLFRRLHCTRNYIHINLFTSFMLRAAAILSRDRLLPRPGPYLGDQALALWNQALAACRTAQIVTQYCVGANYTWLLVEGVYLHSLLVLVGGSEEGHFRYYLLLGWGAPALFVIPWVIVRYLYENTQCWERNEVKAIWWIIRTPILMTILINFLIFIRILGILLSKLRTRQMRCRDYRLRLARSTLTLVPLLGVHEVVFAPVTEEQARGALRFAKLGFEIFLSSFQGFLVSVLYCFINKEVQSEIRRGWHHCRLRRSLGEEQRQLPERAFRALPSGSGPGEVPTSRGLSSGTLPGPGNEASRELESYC
Experiment: Functional in vitro GIPR antagonist potency assay (cAMP HTRF, CHO-K1 cells stably expressing hGIPR, hGIP stimulation at about EC80)
Type: cell-based
Details: geometric mean, hGIP at estimated EC80, examples marked ^2: overall geometric mean of multiple forms (including salts) tested
How it was run: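 CHO-K1 cells expressing hGIPR (2,000 per well) in HBSS/HEPES/0.1% BSA with 200 μM IBMX were preincubated 2 h at 37 °C with an 11-point compound series (0.5% DMSO). hGIP at about EC80 was then added for 30 min, and cAMP was read by HTRF (665/620 nm). Data were normalized between hGIP alone and full antagonism by a reference antagonist at 80 μM.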

SMILES	IC50 [nM]
CC(C)c1ccc(NC(=O)N2CCC[C@@H]2C(=O)Nc2ccc(-c3ccc(O)c(F)c3)cc2)cc1 [Example 54, (2R)-N^2-(3′-fluoro-4′-hydroxy[1,1′-biphenyl]-4-yl)-N^1-[4-(propan-2-yl)phenyl]pyrrolidine-1,2-dicarboxamide]	140
O=C(O)c1ccc(-c2ccc(NC(=O)[C@H]3CCCN3C(=O)Nc3ccc(C(F)(F)F)c(Cl)c3)cc2)cn1 [Example 55, 5-{4-[(1-{[3-chloro-4-(trifluoromethyl)phenyl]carbamoyl}-D-prolyl)amino]phenyl}pyridine-2-carboxylic acid]	7.6
CC(C)c1ccc(NC(=O)N2CCC[C@@H]2C(=O)Nc2ccc(-c3ccc(C(=O)O)cc3F)cc2)cc1 [Example 56, 2-fluoro-4′-[(1-{[4-(propan-2-yl)phenyl]carbamoyl}-D-prolyl)amino][1,1′-biphenyl]-4-carboxylic acid]	6.3
Cc1cc(C(=O)O)ncc1-c1ccc(NC(=O)[C@H]2CCCN2C(=O)Nc2ccc(C(C)C)cc2)cc1 [Example 57, 4-methyl-5-{4-[(1-{[4-(propan-2-yl)phenyl]carbamoyl}-D-prolyl)amino]phenyl}pyridine-2-carboxylic acid]	65
Cc1cc(-c2ccc(NC(=O)[C@H]3CCCN3C(=O)Nc3ccc(C(C)C)cc3)cc2)cnc1C(=O)O [Example 58, 3-methyl-5-{4-[(1-{[4-(propan-2-yl)phenyl]carbamoyl}-D-prolyl)amino]phenyl}pyridine-2-carboxylic acid]	50
O=C(O)c1ccc(-c2ccc(NC(=O)[C@H]3CCCN3C(=O)Nc3cc(Cl)cc(Cl)c3)cc2)cc1 [Example 59, 4′-({1-[(3,5-dichlorophenyl)carbamoyl]-D-prolyl}amino)[1,1′-biphenyl]-4-carboxylic acid]	35
Cc1cc(C(=O)O)ccc1-c1ccc(NC(=O)[C@H]2CCCN2C(=O)Nc2ccc(C(C)C)cc2)cn1 [Example 60, 3-methyl-4-{5-[(1-{[4-(propan-2-yl)phenyl]carbamoyl}-D-prolyl)amino]pyridin-2-yl}benzoic acid]	21
CC(C)c1ccc(NC(=O)N2CCC[C@@H]2C(=O)Nc2ccc(-c3ccc(C(=O)O)cc3)cc2)nc1 [Example 61, 4′-[(1-{[5-(propan-2-yl)pyridin-2-yl]carbamoyl}-D-prolyl)amino][1,1′-biphenyl]-4-carboxylic acid]	150
CC(C)c1ccc(NC(=O)N2CCC[C@@H]2C(=O)Nc2ccc(-c3ccc(C(=O)O)cc3)cc2)cn1 [Example 62, 4′-[(1-{[6-(propan-2-yl)pyridin-3-yl]carbamoyl}-D-prolyl)amino][1,1′-biphenyl]-4-carboxylic acid]	110
O=C(O)c1ccc(-c2ccc(NC(=O)[C@H]3CCCN3C(=O)Nc3ccc(Br)cc3)cc2)cc1 [Example 63, 4′-({1-[(4-bromophenyl)carbamoyl]-D-prolyl}amino)[1,1′-biphenyl]-4-carboxylic acid]	6.2
CC(C)c1ccc(NC(=O)N2CCC[C@@H]2C(=O)Nc2ccc(-c3ccc(C(=O)O)cc3)cc2)cc1F [Example 64, 4′-[(1-{[3-fluoro-4-(propan-2-yl)phenyl]carbamoyl}-D-prolyl)amino][1,1′-biphenyl]-4-carboxylic acid]	2.9
CC(C)c1ccc(NC(=O)N2CCC[C@@H]2C(=O)Nc2ccc(-c3ccc(C(=O)O)nc3)cc2F)cc1 [Example 65, 5-{3-fluoro-4-[(1-{[4-(propan-2-yl)phenyl]carbamoyl}-D-prolyl)amino]phenyl}pyridine-2-carboxylic acid]	13
CC(C)c1ccc(NC(=O)N2CCC[C@@H]2C(=O)Nc2ccc(-c3cccc(O)c3F)cc2)cc1 [Example 66, (2R)-N^2-(2′-fluoro-3′-hydroxy[1,1′-biphenyl]-4-yl)-N^1-[4-(propan-2-yl)phenyl]pyrrolidine-1,2-dicarboxamide]	390
Cc1cc(C(=O)O)cc(C)c1-c1ccc(NC(=O)[C@H]2CCCN2C(=O)Nc2ccc(C(C)C)cc2)cc1 [Example 67, 2,6-dimethyl-4′-[(1-{[4-(propan-2-yl)phenyl]carbamoyl}-D-prolyl)amino][1,1′-biphenyl]-4-carboxylic acid]	14
